# From the supplement of paper PMC10307832
# Experiments:
# Experiment in all cases: relative viability (nuclei count vs DMSO), 5 days (fraction); higher = more cells survive
# Neratinib + Pictilisib = compound: CCOc1cc2ncc(C#N)c(Nc3ccc(OCc4ccccn4)c(Cl)c3)c2cc1NC(=O)/C=C/CN(C)C [Neratinib] + CS(=O)(=O)N1CCN(Cc2cc3nc(-c4cccc5[nH]ncc45)nc(N4CCOCC4)c3s2)CC1 [Pictilisib] (partner 1 µM)
# Procedure, shortened: (§1)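 Each reported value is a median over duplicate plates. It expresses relative viability: treated-well nuclei count divided by vehicle-well nuclei count. Lung cancer cell lines in 1536-well plates were dosed by pin tool a day after seeding, alone with one drug or with a fixed anchor-drug dose plus five library-drug doses (not always all listed) in √10 steps, and nuclei were counted after 5 days.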
# Neratinib + Alpelisib = compound: CCOc1cc2ncc(C#N)c(Nc3ccc(OCc4ccccn4)c(Cl)c3)c2cc1NC(=O)/C=C/CN(C)C [Neratinib] + Cc1nc(NC(=O)N2CCC[C@H]2C(N)=O)sc1-c1ccnc(C(C)(C)C(F)(F)F)c1 [Alpelisib] (partner 2 µM)
# Procedure, shortened: as §1
# Neratinib + Phenformin = compound: CCOc1cc2ncc(C#N)c(Nc3ccc(OCc4ccccn4)c(Cl)c3)c2cc1NC(=O)/C=C/CN(C)C [Neratinib] + N=C(N)NC(=N)NCCc1ccccc1 [Phenformin] (partner 250 µM)
# Procedure, shortened: as §1
# Neratinib + AZD7762 = compound: CCOc1cc2ncc(C#N)c(Nc3ccc(OCc4ccccn4)c(Cl)c3)c2cc1NC(=O)/C=C/CN(C)C [Neratinib] + NC(=O)Nc1cc(-c2cccc(F)c2)sc1C(=O)N[C@H]1CCCNC1 [AZD7762] (partner 0.2 µM)
# Procedure, shortened: as §1
Cell Line,relative viability (Neratinib + Pictilisib; first compound 0.01 µM),relative viability (Neratinib + Pictilisib; first compound 0.03162 µM),relative viability (Neratinib + Pictilisib; first compound 0.1 µM),relative viability (Neratinib + Pictilisib; first compound 0.3162 µM),relative viability (Neratinib + Pictilisib; first compound 1 µM),relative viability (Neratinib + Alpelisib; first compound 0.01 µM),relative viability (Neratinib + Alpelisib; first compound 0.03162 µM),relative viability (Neratinib + Alpelisib; first compound 0.3162 µM),relative viability (Neratinib + Alpelisib; first compound 1 µM),relative viability (Neratinib + Phenformin; first compound 0.01 µM),relative viability (Neratinib + Phenformin; first compound 0.03162 µM),relative viability (Neratinib + Phenformin; first compound 0.1 µM),relative viability (Neratinib + Phenformin; first compound 0.3162 µM),relative viability (Neratinib + Phenformin; first compound 1 µM),relative viability (Neratinib + AZD7762; first compound 0.01 µM),relative viability (Neratinib + AZD7762; first compound 0.03162 µM),relative viability (Neratinib + AZD7762; first compound 0.1 µM),relative viability (Neratinib + AZD7762; first compound 0.3162 µM),relative viability (Neratinib + AZD7762; first compound 1 µM),relative viability (Neratinib + Alpelisib; first compound 0.1 µM)
LK-2,0.653,0.566,0.594,0.446,0.266,1.15,1.17,0.816,0.327,0.467,0.418,0.518,0.287,0.318,0.358,0.309,0.368,0.145,0.175,–
LOU-NH91,0.53,0.496,0.483,0.484,0.469,0.628,0.598,0.447,0.475,0.664,0.634,0.525,0.426,0.412,0.791,0.728,0.717,0.664,0.496,0.507
LU99A,0.31,0.311,0.285,0.263,0.207,0.66,0.625,0.323,0.259,0.92,0.905,0.87,0.801,0.683,0.426,0.403,0.314,0.374,0.263,0.483
LXF-289,0.785,0.821,–,0.759,0.418,1.03,1.04,0.98,0.765,0.533,0.537,0.461,0.476,0.435,1.09,1.12,1.04,1.21,–,0.974
NCI-H23,0.553,0.428,0.437,0.483,0.372,0.832,0.716,0.686,0.329,0.959,0.905,0.827,0.731,0.597,0.253,0.329,0.25,0.217,0.191,0.653
NCI-H322M,0.528,0.455,0.499,0.333,0.327,0.657,0.839,0.478,0.218,0.762,0.671,0.671,0.376,0.283,0.49,0.544,0.503,0.409,0.437,0.803
NCI-H358,0.302,0.336,0.231,0.295,0.228,0.781,0.841,0.236,0.22,0.28,0.266,0.164,0.147,0.101,0.533,0.508,0.358,0.257,0.223,0.372
NCI-H441,0.508,0.482,0.456,0.313,0.191,0.972,0.906,0.504,0.254,1.04,0.82,0.94,0.705,0.45,1.12,1.32,0.958,0.987,0.73,–
NCI-H460,0.325,0.384,0.294,0.323,0.32,0.598,0.6,0.403,0.0801,0.58,0.675,0.414,0.491,0.341,0.654,0.718,0.639,0.54,0.265,–
NCI-H596,0.374,0.417,0.35,0.4,0.329,0.464,0.474,0.489,0.304,0.754,0.895,0.75,0.695,0.562,1.07,1.27,0.745,1.1,0.805,0.433
NCI-H647,0.437,0.506,0.456,0.364,0.183,1.17,1.13,0.862,0.614,0.574,–,0.398,0.368,0.113,0.532,0.568,0.466,0.457,0.277,0.958
NCI-H650,0.974,0.898,0.729,–,0.644,1.13,1.32,–,0.85,0.509,0.505,0.493,0.392,0.423,1.02,1.09,–,1,1.3,0.999
NCI-H727,0.337,0.256,–,0.516,0.258,0.525,0.542,0.441,0.276,0.521,0.597,0.294,0.4,0.595,0.574,0.568,–,0.497,0.374,–
NCI-H838,0.466,0.54,0.473,0.375,0.25,1.05,1.16,0.832,0.344,0.63,0.669,0.579,0.433,0.234,0.944,1.08,0.968,–,0.78,0.94
NCI-H1355,0.485,0.482,0.395,0.365,0.232,0.949,0.83,0.698,0.236,0.485,0.433,0.408,0.417,0.427,0.904,0.754,0.642,0.706,0.538,0.788
NCI-H1395,0.595,0.679,0.602,0.659,0.449,1.07,1.17,1.07,0.729,0.461,0.484,0.462,0.428,0.388,0.419,0.42,0.399,0.388,0.389,1.06
NCI-H1437,0.474,0.553,0.356,0.325,0.343,1.11,1.07,0.912,0.617,0.351,0.284,0.281,0.243,0.29,1.18,1.12,1.05,1.08,0.896,0.714
NCI-H1651,0.661,0.633,0.422,0.449,0.343,1.03,1,0.783,0.616,0.332,0.383,0.339,0.27,0.32,0.503,0.521,0.416,0.328,0.246,0.823
NCI-H1666,0.549,–,0.327,0.218,0.271,0.919,0.772,0.433,0.369,0.616,0.573,0.519,0.54,0.593,0.929,0.946,0.783,0.653,0.611,0.57
NCI-H1734,0.5,0.464,0.428,0.432,0.346,0.744,–,0.533,0.479,0.428,0.429,0.382,0.412,0.32,0.584,0.555,0.457,0.505,0.36,0.588
NCI-H1755,0.475,0.455,0.407,0.36,0.209,0.947,1.04,0.946,0.409,0.641,0.657,0.535,0.593,0.577,0.492,0.53,0.356,0.65,0.407,0.899
NCI-H1792,0.311,0.274,0.254,0.278,0.126,–,0.803,0.599,0.484,0.298,0.2,0.292,0.261,0.26,–,0.943,0.625,0.533,0.283,0.639
NCI-H1793,0.31,0.361,0.319,0.339,0.275,0.708,0.664,0.519,0.296,0.392,0.516,0.281,0.273,0.255,0.629,0.503,0.346,0.239,0.13,0.472
NCI-H1915,–,1.03,0.93,0.904,0.881,1.12,1.13,0.99,0.829,0.383,0.384,0.228,0.354,0.39,0.791,0.716,0.638,0.685,0.653,1.04
NCI-H1944,0.387,0.341,0.193,0.31,0.266,0.948,0.782,0.561,0.393,0.237,0.202,0.192,0.176,0.174,0.584,0.621,0.4,0.505,0.313,0.615
NCI-H1975,0.328,0.372,0.209,0.104,0.143,0.85,0.738,0.153,0.192,0.434,0.446,0.403,0.211,0.161,0.855,0.847,0.619,0.362,0.303,0.546
NCI-H1993,–,0.772,0.721,0.796,–,0.624,0.666,0.687,0.664,0.365,0.523,0.533,0.626,0.567,0.762,0.745,0.624,0.465,0.581,0.717
